In patent US7659240B2, “Mucin immobilized chromatography” (Vertex Pharmaceuticals Incorporated, priority 2002, dated 2010):
Where “and” joins values, the source holds several entries; their conditions need not be identical. Identical values can stand only once. Counter-ions that a name gives are not always drawn. Like-named read-outs stand apart in the source and are kept apart here.

Legend:
[1] = system: mucin immobilized to PC IAM particles; test: pH and mucin layer thickness dependence of partition ratio on MIC columns (1:2 and 2:1); details: for (1:2) k′ (pH 3) / (1:2) k′ (pH 5) / (1:2) k′ (pH 7): column 1:2 mucin to PC IAM, 0.32 μm mucin layer; for (1:2) k′ (pH 3) / (2:1) k′ (pH 3): mobile phase pH 3; for (1:2) k′ (pH 5) / (2:1) k′ (pH 5): mobile phase pH 5; for (1:2) k′ (pH 7) / (2:1) k′ (pH 7): mobile phase pH 7; for (2:1) k′ (pH 3) / (2:1) k′ (pH 5) / (2:1) k′ (pH 7): column 2:1 mucin to PC IAM, 0.36 μm mucin layer; for k′MIC (1:2): column 1:2, 0.32 μm; for k′MIC (1:2) / k′MIC (2:1): pH 7, Table 9; for k′MIC (2:1): column 2:1, 0.36 μm
[2] = single-pass perfusions, cited from earlier work
[3] = cited from earlier work
[4] = system: mucin immobilized to IAM.PC.DD2; test: HPLC on MIC column (2:1 mucin to PC IAM particles): retention time, k′MIC, derived Km and Peff MIC; details: for k′MIC / Retention Time: MIC column 2:1 mucin:IAM, MPS pH 7.4; for Retention Time: isocratic 0.3 ml/min; for Dm: membrane diffusion coefficient calculated from molecular weight
Experimental: [formula] where Dm is the membrane diffusion coefficient of the solute, Km is the membrane equilibrium constant, and L is the membrane thickness (Stein, W., Transport and Diffusion Across Cell Membranes, Academic Press, Orlando, Fla. (1986)). […] Since molecular weight, MW, is proportional to molecular size, Dm may also written as,
[formula] Thus, Dm can be calculated from the molecular weight. Furthermore, Km is calculated by the following equation, Km−(Vm/Vs)k′, [4] where Vm is the volume of the mobile phase, Vs is the internal volume of the stationary phase, and k′ is the partition ratio (Pidgeon and Ong, Chemtech. June, 38-48 (1995)). The partition ratio is determined by the equation, k′−(tr−to)/to, [5] where tr is the retention time of the drug and to is the void volume of the column. Both tr and to can be experimentally determined in order to obtain k′.
Equation 2 can be used to determine Km for a given MIC medium. Both Dm and L are known from the discussion above, and Peff can be calculated for various drugs having known in vivo absorption. For example, a number of drug permeability coefficients, Peff, derived from in vivo experiments are listed in literature. […] See Example 5 below.

SMILES | (1:2) k′ (pH 3) [1] | (1:2) k′ (pH 5) [1] | (1:2) k′ (pH 7) [1] | (2:1) k′ (pH 3) [1] | (2:1) k′ (pH 5) [1] | (2:1) k′ (pH 7) [1] | k′MIC [4] | Retention Time [4] | Dm [4] | also measured
CC(COc1ccccc1)N(CCCl)Cc1ccccc1 (centres unmarked) [Phenoxybenzamine HCl] | 20.67 | 29.00 | 29.00 | 20.43 | 17.57 | 15.67 |  |  |  | 
CN(CC(=O)O)C(=N)N [Creatine] | 39.00 | 39.00 | 39.00 | 20.43 | 23.29 | 32.33 | 30.4286 | 2.2 | 0.0088 | Peff Loc-I-Gut (×10^−4 cm/s) ([2]; Table 5): 0.3 ×10^−4 cm/s; Peff Loc-I-Gut (×10^−4 cm/s) ([2]; Table 9): 0.3 ×10^−4 cm/s; % Absorbed ([3]; Table 5): 0%; k′MIC (1:2) [1]: 25.7; k′MIC (2:1) [1]: 24; K′MIC ([4]; MIC 2:1, Table 5): 30.43; Peff MIC (×10^−4 cm/s) ([4]; determined by linear equation, Table 5): −0.22 ×10^−4 cm/s
COc1ccc(CCN(C)CCCC(C#N)(c2ccc(OC)c(OC)c2)C(C)C)cc1OC (centres unmarked) [Verapamil] |  |  |  |  |  |  | 71.8571 | 5.1 | 0.0020 | K′MIC ([4]; MIC 2:1, Table 5): 71.86
CC(C)NCC(O)COc1ccc(CC(N)=O)cc1 (centres unmarked) [Atenolol] | 39.00 | 39.00 | 39.00 | 29.00 | 31.86 | 37.33 |  |  |  | Peff Loc-I-Gut (×10^−4 cm/s) ([2]; Table 5): 0.15 ×10^−4 cm/s; Peff Loc-I-Gut (×10^−4 cm/s) ([2]; Table 6): 0.15 ×10^−4 cm/s; Peff Loc-I-Gut (×10^−4 cm/s) ([2]; Table 9): 0.2 ×10^−4 cm/s; % Absorbed ([3]; Table 5): 50%; % Absorbed ([3]; Table 6): 50%; k′MIC (1:2) [1]: 39; k′MIC (2:1) [1]: 37
NS(=O)(=O)c1cc(C(=O)O)c(NCc2ccco2)cc1Cl [Furosemide] | 40.67 | 37.33 | 35.67 | 30.43 | 27.57 | 25.67 |  |  |  | Peff Loc-I-Gut (×10^−4 cm/s) ([2]; Table 5): 0.3 ×10^−4 cm/s; Peff Loc-I-Gut (×10^−4 cm/s) ([2]; Table 9): 0.3 ×10^−4 cm/s; % Absorbed ([3]; Table 5): 60%; k′MIC (1:2) [1]: 35.7; k′MIC (2:1) [1]: 25.7
CN/C(=N/CCSCc1nc[nH]c1C)NC#N [Cimetidine] | 25.67 | 29.00 | 44.00 | 17.57 | 23.29 | 35.67 |  |  | 0.0039 and 0.0040 | 
Cn1c(=O)c2c(ncn2C)n(C)c1=O [Caffeine] | 44.00 | 44.00 | 45.67 | 34.71 | 34.71 | 39.00 | 37.5714 | 2.7 | 0.0051 | 
CC(C)Cc1ccc(C(C)C(=O)O)cc1 (centres unmarked) [Ibuprofen] |  |  |  |  |  |  | 53.2857 | 3.8 | 0.0044 | 
CC(=O)CC(c1ccccc1)c1c(O)c2ccccc2oc1=O (centres unmarked) [Warfarin] | 25.67 | 30.67 | 39.00 | 21.86 | 24.71 | 19.00 | 54.7143 | 3.9 | 0.0032 | δ = log k′MIC − log k′IAM [4]: 0.59; log k′MIC ([4]; MIC 2:1): 1.74
OC[C@@H](O)[C@@H](O)[C@H](O)[C@H](O)CO [Mannitol] |  |  |  |  |  |  | 33.4286 | 2.4 | 0.0055 | 
CC(C)(C)NC[C@H](O)COc1nsnc1N1CCOCC1 [Timolol] |  |  |  |  |  |  | 36.1429 | 2.6 | 0.0023 | 
C=C[C@H]1C[N@@]2CC[C@H]1C[C@@H]2[C@@H](O)c1ccnc2ccc(OC)cc12 [quinidine, HCl] |  |  |  |  |  |  | 70.4286 | 5.0 | 0.0026 | 
CC(C(=O)O)c1cccc(C(=O)c2ccccc2)c1 (centres unmarked) [Ketoprofen] | 25.67 | 29.00 | 82.33 | 20.43 | 27.57 | 70.67 | 52.5714 | 3.8 | 0.0039 | k′MIC (1:2) [1]: 82.3; k′MIC (2:1) [1]: 70.7; K′MIC ([4]; MIC 2:1, Table 5): 52
COc1ccc2cc([C@H](C)C(=O)O)ccc2c1 [Naproxen] |  |  |  |  |  |  |  |  |  | Peff Loc-I-Gut (×10^−4 cm/s) ([2]; Table 5): 8.0 ×10^−4 cm/s; Peff Loc-I-Gut (×10^−4 cm/s) ([2]; Table 6): 8.0 ×10^−4 cm/s; Peff Loc-I-Gut (×10^−4 cm/s) ([2]; Table 9): 8.0 ×10^−4 cm/s; % Absorbed ([3]; Table 5): 100%; % Absorbed ([3]; Table 6): 100%
Nc1nc2c(ncn2COCCO)c(=O)[nH]1 [Acyclovir] | 25.67 | 15.67 | 25.67 | 20.43 | 20.43 | 24.00 | 33.5714 | 2.4 | 0.0044 | 
CC(CCc1ccccc1)NCC(O)c1ccc(O)c(C(N)=O)c1 (centres unmarked) [Labetalol] | 24.00 | 24.00 | 32.33 | 79.00 | 90.43 | 132.33 | 53.2857 | 3.8 | 0.0027 | 
C=CCc1ccccc1OCC(O)CNC(C)C (centres unmarked) [Alprenolol] | 54.00 | 64.00 | 42.33 | 43.29 | 49.00 | 82.33 | 46.1429 | 3.3 | 0.0035 | 

The next lines start with results.

(1:2) k′ (pH 3) [1] | (1:2) k′ (pH 5) [1] | (1:2) k′ (pH 7) [1] | (2:1) k′ (pH 3) [1] | (2:1) k′ (pH 5) [1] | (2:1) k′ (pH 7) [1] | k′MIC [4] | Retention Time [4] | Dm [4] | SMILES | also measured
10.67 | 29.00 | 12.33 | none | 13.29 | 57.33 |  |  |  | CN(Cc1cnc2nc(N)nc(N)c2n1)c1ccc(C(=O)N[C@@H](CCC(=O)O)C(=O)O)cc1 [amethopterin] | 
64.00 | 65.67 | 64.00 | 50.43 | 51.86 | 62.33 | 38.2857 | 2.8 | 0.0066 | CC(=O)Nc1ccc(O)cc1 [acetaminophen] | 
none | 30.67 | 30.67 | none | 19.00 | 34.00 |  |  |  | COc1ccc(Cl)cc1C(=O)NCCc1ccc(S(=O)(=O)NC(=O)NC2CCCCC2)cc1 [glybenclamide] | 
none | none | none | none | none | none |  |  |  | CC(C)C[C@H](N)C(=O)O [leucine] | 
 |  |  |  |  |  | 33.2857 | 2.4 | 0.0047 | C[C@](N)(Cc1ccc(O)c(O)c1)C(=O)O [α-methyldopa] | Peff Loc-I-Gut (×10^−4 cm/s) ([2]; Table 5): 0.2 ×10^−4 cm/s; % Absorbed ([3]; Table 5): 0%; Peff MIC (×10^−4 cm/s) [4]: 0.10 ×10^−4 cm/s; K′MIC ([4]; MIC 2:1, Table 5): 33.29
87.33 | 85.67 | 24.00 | 70.43 | 67.57 | 22.33 | 71.8571 | 5.1 | 0.0025 | O=C(O)c1cc(/N=N/c2ccc(S(=O)(=O)Nc3ccccn3)cc2)ccc1O [sulfasalazine] | 
none | none | none | none | none | none |  |  |  | NCC(=O)O [glycine] | 
30.67 | 44.00 | 110.67 | 23.29 | 34.71 | 95.67 |  |  |  | O=C(CCCN1CCC(O)(c2ccc(Cl)cc2)CC1)c1ccc(F)cc1 [haloperidol] | 
34.00 | 40.67 | 22.33 | 30.43 | 24.71 | 20.67 | 38.5714 | 2.8 | 0.0055 | CC(=O)Oc1ccccc1C(=O)O [acetyl salicylic acid] | 
